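Growth conditions: 96-well plates. Treatment: test compound, 48 hours, 5 concentrations. Analysis: linear interpolation between bracketing concentrations; unreached endpoints set to highest concentration. GI50 marks 50% less growth.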 Active and inactive are the calls of the source. Rule as the data show it: active = GI50 up to about 1.1 µM and inactive = higher.
Key:
Test in all cases: inhibition of tumour cell growth, NCI panel, 48 h
[1] = test system: M19-MEL
[2] = test system: HT-29
[3] = test system: SK-MEL-2
[4] = test system: SF-268
[5] = test system: M14
[6] = test system: SF-539
[7] = test system: UACC-257
[8] = test system: HOP-92
[9] = test system: EKVX
[10] = test system: CCRF-CEM
[11] = test system: K562
[12] = test system: OVCAR-5
[13] = test system: OVCAR-8
[14] = test system: HOP-62
[15] = test system: NCI-H460
[16] = test system: BT-549
[17] = test system: MDA-MB-435
[18] = test system: MCF7
[19] = test system: Hs-578T
[20] = test system: NCI/ADR-RES

Measured: GI50

Clc1cc(Cl)c2c(Cl)cc(Cl)c3c2c1N=S=N3
inactive: [1] > 100 µM | [2] > 100 µM | [3] > 100 µM | [4] > 100 µM | [5] > 100 µM | [6] > 100 µM | [7] > 100 µM | [8] > 100 µM | [9] > 100 µM | [10] 52.1 µM | [11] > 100 µM | [12] > 100 µM | [13] > 100 µM

O=C(Nc1ccccc1Cl)c1ccc([N+](=O)[O-])cc1
inactive: [1] > 100 µM | [2] > 100 µM | [3] > 100 µM | [4] > 100 µM | [5] > 100 µM | [14] 47.4 µM | [6] 64.3 µM | [7] > 100 µM | [9] 76.4 µM | [10] > 100 µM | [11] > 100 µM | [15] > 100 µM | [13] > 100 µM

Cc1cc2c(cc1C)[n+]([O-])c(C(=O)C/C(=N/NC(=O)c1ccccc1O)C(=O)Nc1ccccc1C(C)C)c(C)[n+]2[O-]
inactive: [1] > 100 µM | [2] > 100 µM | [3] > 100 µM | [4] 68.2 µM | [5] > 100 µM | [14] > 100 µM | [6] > 100 µM | [7] > 100 µM | [9] > 100 µM | [10] 27.3 µM | [11] 31.6 µM | [15] 61.8 µM | [12] > 100 µM | [13] > 100 µM

COc1ccc(-c2oc3cc(O)c(OC)c(O)c3c(=O)c2OC2OC(CO)C(O)C(O)C2O)cc1 (stereo not given)
inactive: [1] > 100 µM | [2] > 100 µM | [3] > 100 µM | [5] > 100 µM | [6] > 100 µM | [8] > 100 µM | [9] > 100 µM | [10] > 100 µM | [11] > 100 µM | [15] 43.3 µM | [13] 91 µM

Clc1ccccc1/C=C/c1ccnc2ccccc12
inactive: [16] 14.6 µM | [17] 15.8 µM | [2] 16 µM | [3] 16.6 µM | [18] 11.6 µM | [4] 18.9 µM | [5] 17.3 µM | [14] 16.9 µM | [6] 18.4 µM | [7] 15.1 µM | [8] 10.2 µM | [9] 5.48 µM | [10] 20.5 µM | [11] 15.9 µM | [19] 20.7 µM | [20] 15.2 µM | [15] 16.2 µM | [12] 19.9 µM | [13] 18.3 µM

Nc1nc(N)c(C2=CCNCC2)c(=O)[nH]1
inactive: [16] > 100 µM | [17] > 100 µM | [2] > 100 µM | [3] > 100 µM | [18] > 100 µM | [4] > 100 µM | [5] > 100 µM | [14] > 100 µM | [6] > 100 µM | [7] > 100 µM | [8] > 100 µM | [9] > 100 µM | [10] > 100 µM | [11] > 100 µM | [19] > 100 µM | [20] > 100 µM | [15] > 100 µM | [12] > 100 µM | [13] > 100 µM

C[C@H]1CC[P+](C)(c2ccccc2)C1 (stereo not given in full)
inactive: [1] > 100 µM | [2] > 100 µM | [3] > 100 µM | [5] > 100 µM | [14] > 100 µM | [6] > 100 µM | [7] > 100 µM | [9] > 100 µM | [10] > 100 µM | [11] > 100 µM | [15] > 100 µM | [12] > 100 µM | [13] > 100 µM

NC(CNc1ccc(O)cc1)C(=O)O (stereo not given)
inactive: [1] 28.8 µM | [2] > 100 µM | [3] 60.4 µM | [4] > 100 µM | [5] 80.7 µM | [14] > 100 µM | [7] > 100 µM | [8] > 100 µM | [9] > 100 µM | [10] 33.6 µM | [11] 89.1 µM | [15] > 100 µM | [12] > 100 µM | [13] > 100 µM

COc1ccc(CCN(C)C(=O)CC(C#N)(c2ccccc2)c2ccc(OC)c(OC)c2)cc1OC (stereo not given)
inactive: [16] > 100 µM | [17] > 100 µM | [2] > 100 µM | [3] > 100 µM | [18] > 100 µM | [4] > 100 µM | [5] > 100 µM | [14] > 100 µM | [6] > 100 µM | [7] > 100 µM | [8] 3.15 µM | [9] > 100 µM | [10] > 100 µM | [11] > 42.2 µM | [19] > 100 µM | [20] > 100 µM | [15] > 100 µM | [12] > 100 µM | [13] > 100 µM
